According to PMC8760490, “Discovery of novel furanylbenzamide inhibitors that target oncogenic tyrosine phosphatase SHP2 in leukemia cells” (The Journal of Biological Chemistry, 2021):

Experiments:
Type in all cases: biochemical
[1] = biological target: T1, full-length SHP2-E76K oncogenic mutant (Homo sapiens, UniProt Q06124, E76K); assay: DiFMUP fluorescence phosphatase inhibition assay, SHP2-E76K; settings: for IC50: DiFMUP at Km (20 μM), 10-point dose–response, pH 6.0
T1 construct: Recombinant human full-length SHP2 (1–594) WT and E76K mutants; made in house
T1 sequence (Q06124 1-593 E76K): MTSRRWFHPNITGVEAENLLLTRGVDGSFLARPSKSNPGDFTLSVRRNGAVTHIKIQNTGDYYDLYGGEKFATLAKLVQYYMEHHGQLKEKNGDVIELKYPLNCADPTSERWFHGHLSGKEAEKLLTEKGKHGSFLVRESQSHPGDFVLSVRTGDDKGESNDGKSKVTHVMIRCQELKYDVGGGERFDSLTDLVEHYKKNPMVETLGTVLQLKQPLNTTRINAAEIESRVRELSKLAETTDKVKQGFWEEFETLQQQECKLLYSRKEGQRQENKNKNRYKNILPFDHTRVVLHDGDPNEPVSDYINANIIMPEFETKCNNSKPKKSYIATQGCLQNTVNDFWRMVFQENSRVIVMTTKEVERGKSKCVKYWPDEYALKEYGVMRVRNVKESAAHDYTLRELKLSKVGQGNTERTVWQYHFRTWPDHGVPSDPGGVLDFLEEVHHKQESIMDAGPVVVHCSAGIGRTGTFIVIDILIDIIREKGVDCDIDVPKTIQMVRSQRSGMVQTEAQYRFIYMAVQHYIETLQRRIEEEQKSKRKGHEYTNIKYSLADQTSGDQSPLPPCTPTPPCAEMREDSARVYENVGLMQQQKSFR
From the text: (§1) To test the synthesized compounds for their potential to inhibit SHP2 activity, a fluorescence intensity-based assay using 6,8-difluoro-4-methylumbelliferyl phosphate (DiFMUP) as the substrate was adapted for three recombinant SHP2 constructs: (1) the SHP2 catalytic domain (SHP2cat; residues 248–527), (2) the full-length SHP2-E76K oncogenic mutant, and (3) the full-length SHP2 WT (SHP2-WT). The recombinant SHP2 proteins were expressed and purified as described previously ([36]). A dually phosphorylated peptide derived from the insulin receptor substrate 1 (IRS-1) served as a surrogate binding protein and was used to activate SHP2-WT ([30], [36]). […] Michaelis–Menten experiments to determine the DiFMUP Michaelis–Menten constant (Km) for each SHP2 construct were performed as described previously ([36]) and yielded the following values: SHP2-WT, Km = 60 μM; SHP2-E76K, Km = 20 μM; and SHP2cat, Km = 20 μM. Relative maximum rates (Vmax) of the DiFMUP reactions expressed as relative fluorescence units per minute (RFU/min) were as follows: SHP2-WT, Vmax = 871 RFU/min; SHP2-E76K, Vmax = 2730 RFU/min; and SHP2cat, Vmax = 2912 RFU/min. IC50 values for each compound were determined from initial rates in 10-point dose–response assays using DiFMUP at a concentration corresponding to its Km value for the respective SHP2 construct. […] Replacements for the benzothiophenone were explored using analog #10.
(§2) Recombinant human full-length SHP2 (1–594) WT and E76K mutants, as well as the SHP2cat (248–527), were expressed and purified as described before ([36], [41]). Recombinant human PTP1B (1–300) and the codon-optimized STEP (280–566) catalytic domains were cloned into PET-15b and expressed as N-His-tagged fusion proteins. For expression, transformed BL21(DE3) cells were grown and induced similar as described for SHP2. Collected cells were resuspended in lysis buffer (25 mM Tris, pH 7.5, 300 mM NaCl, 50 mM imidazole, and 10% glycerol) with 100 mg/l RNaseA and were lysed with two passages using a microfluidizer. The lysate was clarified by centrifugation at 15,000g for 50 min and applied to nickel–nitrilotriacetic acid resin. The column resin was washed, and the PTP1B or STEP protein was eluted in lysis buffer at 300 mM imidazole. The PTP1B or STEP protein was further purified by S75 size-exclusion chromatography in 50 mM Tris, pH 7.5, 50 mM NaCl. The eluted peak fractions were supplemented with tris(2-carboxyethyl)phosphine to 10 mM, concentrated by ultrafiltration, and stored at −80 °C. The purified yield of PTP1B was 33 mg/l cell culture; the yield of STEP was 16 mg/l cell culture.
(§3) SHP2 inhibitors were tested at RT in a 384-well plate format standard phosphatase fluorescence intensity assay using DiFMUP (Invitrogen/Thermo Fisher Scientific) as a substrate and a total reaction volume of 25 μl. SHP2 inhibitors or vehicle (DMSO) were spotted in triplicate into a black Greiner FLUOTRAC 200 384-well microplate (catalog no.: 781076; Greiner) for a 10-point dose–response assay using an Echo 555 Liquid Handler (Labcyte, Inc). PTP working solutions were prepared at a 0.625 nM concentration (for a final concentration of 0.5 nM) in buffer containing 50 mM Bis–Tris, pH 6.0, 50 mM NaCl, 5 mM DTT, and 0.01% Tween-20. Prior to the assay, a dually phosphorylated IRS-1 peptide (625 nM [500 nM final] ([30])) was added to full-length WT SHP2 working solutions and incubated for 20 min. DiFMUP working solutions at 5× final concentration were prepared in 50 mM Bis–Tris, pH 6.0, 50 mM NaCl, and 0.01% Tween-20. About 20 μl of PTP working solution was dispensed into the microplate and incubated with inhibitor for 20 min at RT. […] The reaction was initiated by addition of 5 μl DiFMUP working solutions. Fluorescence intensity was measured in kinetic mode (every minute for 7 or 10 min) using a Tecan Spark Multimode Microplate Reader (Tecan) with an excitation wavelength of 360 nm and an emission wavelength of 460 nm. […]

[2] = biological target: T2, full-length SHP2 WT (SHP2-WT) (Homo sapiens, UniProt Q06124); assay: DiFMUP fluorescence phosphatase inhibition assay, SHP2-WT activated with IRS-1 peptide; settings: DiFMUP at Km (60 μM), pH 6.0
T2 construct: Recombinant human full-length SHP2 (1–594) WT and E76K mutants; made in house
From the text: as §1, §2, §3

[3] = biological target: T3, SHP2 catalytic domain (SHP2cat; residues 248–527) (Homo sapiens, UniProt Q06124); assay: DiFMUP fluorescence phosphatase inhibition assay, SHP2cat; settings: DiFMUP at Km (20 μM), pH 6.0; read-out: SHP2cat; IC50
T3 construct: the SHP2 catalytic domain (SHP2cat; residues 248–527); made in house
T3 sequence (Q06124 248-527): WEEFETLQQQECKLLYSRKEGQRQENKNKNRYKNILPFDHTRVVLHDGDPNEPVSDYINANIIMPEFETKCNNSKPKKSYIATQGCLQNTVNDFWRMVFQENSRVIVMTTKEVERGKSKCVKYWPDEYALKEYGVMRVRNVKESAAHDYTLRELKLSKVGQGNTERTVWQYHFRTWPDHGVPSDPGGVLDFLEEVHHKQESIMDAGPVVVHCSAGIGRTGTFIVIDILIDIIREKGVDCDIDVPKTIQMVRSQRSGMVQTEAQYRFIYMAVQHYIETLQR
From the text: as §1, §2, §3

`O=C(Nc1ccccc1)c1cc(-c2ccco2)ccc1O` [SBI-4232, 5-(Furan-2-yl)-2-hydroxy-N-phenylbenzamide] was tested, and the IC50 [1] was > 100 µM and the IC50 [2] was > 100 µM.

In the case of `O=C(NNc1ccccc1)c1cc(-c2ccc(/C=C3\Sc4ccccc4C3=O)o2)ccc1O` [SBI-2128, (Z)-2-Hydroxy-5-(5-((3-oxobenzo[b]thiophen-2(3H)-ylidene)methyl)furan-2-yl)-N′-phenylbenzohydrazide], the IC50 [1] is reported as 11 µM, the IC50 [2] is reported as 14 µM and the IC50 [3] is reported as 3.1 µM.

In the case of `O=C(NCCO)c1cc(-c2ccc(/C=C3\Sc4ccccc4C3=O)o2)ccc1O` [SBI-1457, (Z)-2-Hydroxy-N-(2-hydroxyethyl)-5-(5-((3-oxobenzo[b]thiophen-2(3H)-ylidene)methyl)furan-2-yl)benzamide], the IC50 [1] is reported as > 100 µM and the IC50 [2] is reported as > 100 µM.

Work on `O=C1CCCC1=Cc1ccc(-c2ccc(O)c(C(=O)O)c2)o1` [SBI-3191, 2-Hydroxy-5-(5-((2-oxocyclopentylidene)methyl)furan-2-yl)benzoic acid] yielded an IC50 [1] of 6 µM, an IC50 [2] of 24 µM and an IC50 [3] of 7.4 µM.

For `O=C(O)c1cc(-c2ccc(/C=C3\Oc4ccccc4C3=O)o2)ccc1O` [SBI-0165, (Z)-2-Hydroxy-5-(5-((3-oxobenzofuran-2(3H)-ylidene)methyl)furan-2-yl)benzoic acid], the IC50 [1] was 7.2 µM, the IC50 [2] was 13 µM and the IC50 [3] was 2.4 µM.

`O=C(NCc1ccccc1)c1cccc(-c2ccc(/C=C3\Sc4ccccc4C3=O)o2)c1` [SBI-2129, (Z)-N-benzyl-3-(5-((3-oxobenzo[b]thiophen-2(3H)-ylidene)methyl)furan-2-yl)benzamide] was tested, and the IC50 [1] was 65 µM and the IC50 [2] was > 100 µM.

In the case of `O=C(Nc1ccccc1)c1cccc(-c2ccc(/C=C3\Sc4ccccc4C3=O)o2)c1` [SBI-5923, (Z)-3-(5-((3-Oxobenzo[b]thiophen-2(3H)-ylidene)methyl)furan-2-yl)-N-phenylbenzamide], the IC50 [1] is reported as 52 µM and the IC50 [2] is reported as 62 µM.

`Nc1cccc(NC(=O)c2cc(-c3ccc(/C=C4\Sc5ccccc5C4=O)o3)ccc2O)c1` [SBI-2126, (Z)-N-(3-Aminophenyl)-2-hydroxy-5-(5-((3-oxobenzo[b]thiophen-2(3H)-ylidene)methyl)furan-2-yl)benzamide] gave an IC50 [1] of 7.2 µM, an IC50 [2] of 18 µM and an IC50 [3] of 5 µM.

`O=C1CCCCC1=Cc1ccc(-c2ccc(O)c(C(=O)O)c2)o1` [SBI-3194, 2-Hydroxy-5-(5-((2-oxocyclohexylidene)methyl)furan-2-yl)benzoic acid] gave an IC50 [1] of 39 µM and an IC50 [2] of 56 µM.

Molecule `CC(C)NC(=O)c1cc(-c2ccc(/C=C3\Sc4ccccc4C3=O)o2)ccc1O` [SBI-0287, (Z)-2-Hydroxy-N-isopropyl-5-(5-((3-oxobenzo[b]thiophen-2(3H)-ylidene)methyl)furan-2-yl)benzamide] has an IC50 [1] of 20 µM and an IC50 [2] of 53 µM.

`O=C1/C(=C/c2ccc(-c3ccc(O)c(C(=O)N4CCCCC4)c3)o2)Sc2ccccc21` [SBI-2131, (Z)-2-((5-(4-Hydroxy-3-(piperidine-1-carbonyl)phenyl)furan-2-yl)methylene)benzo[b]thiophen-3(2H)-one] gave an IC50 [1] of 15 µM, an IC50 [2] of 52 µM and an IC50 [3] of 4.3 µM.

`O=C(Nc1ccccc1)c1cc(-c2ccc(/C=C3\Sc4ccccc4C3=O)o2)ccc1F` [SBI-2348, (Z)-2-Fluoro-5-(5-((3-oxobenzo[b]thiophen-2(3H)-ylidene)methyl)furan-2-yl)-N-phenylbenzamide] was tested, and the IC50 [1] was > 100 µM and the IC50 [2] was > 100 µM.

Molecule `O=C(O)c1cc(-c2ccc(C=C3Cc4ccccc4C3=O)o2)ccc1O` [SBI-3204, 2-Hydroxy-5-(5-((1-oxo-1,3-dihydro-2H-inden-2-ylidene)methyl)furan-2-yl)benzoic acid] has an IC50 [1] of 10 µM, an IC50 [2] of 15 µM and an IC50 [3] of 4.5 µM.

With `O=C1/C(=C/c2ccc(-c3ccc(O)cc3)o2)Sc2ccccc21` [SBI-4167, (Z)-2-((5-(4-Hydroxyphenyl)furan-2-yl)methylene)benzo[b]thiophen-3(2H)-one] the IC50 [1] was 79 µM, the “loss in potency compared with #01” value ([1]; E76K IC50) was ~165 fold and the IC50 [2] was > 100 µM.

For `O=C1/C(=C/c2ccc(-c3ccccc3)o2)Sc2ccccc21` [SBI-3570, (Z)-2-((5-phenylfuran-2-yl)methylene)benzo[b]thiophen-3(2H)-one], the IC50 [1] was > 100 µM and the IC50 [2] was > 100 µM.

With `O=C1/C(=C/c2ccc(-c3ccc(O)c(C(=O)N4CCNCC4)c3)o2)Sc2ccccc21` [SBI-2124, (Z)-2-((5-(4-Hydroxy-3-(piperazine-1-carbonyl)phenyl)furan-2-yl)methylene)benzo[b]thiophen-3(2H)-one] the IC50 [1] was 91 µM and the IC50 [2] was > 100 µM.

For `CN1CCN(C(=O)c2cc(-c3ccc(/C=C4\Sc5ccccc5C4=O)o3)ccc2O)CC1` [SBI-2125, (Z)-2-((5-(4-Hydroxy-3-(4-methylpiperazine-1-carbonyl)phenyl)furan-2-yl)methylene)benzo[b]thiophen-3(2H)-one], the IC50 [1] was > 100 µM and the IC50 [2] was > 100 µM.

Molecule `COc1ccc(-c2ccc(/C=C3\Sc4ccccc4C3=O)o2)cc1C(=O)Nc1ccccc1` [SBI-2349, (Z)-2-Methoxy-5-(5-((3-oxobenzo[b]thiophen-2(3H)-ylidene)methyl)furan-2-yl)-N-phenylbenzamide] has an IC50 [1] of 84 µM and an IC50 [2] of 87 µM.
